Measured values published in US20070149552A1, “Lyophilized compositions of a triazolopyrimidine compound” (Wyeth, priority 2005, published 2007).

Key:
[1] = tested on: xenograft models of human non-small cell lung cancer (NSCLC), colon cancer, breast cancer, melanoma, and glioblastoma; settings: including models resistant to taxanes or other microtubule-active compounds; cited from earlier work
Solubility of the salt = assay type: physicochemical

| SMILES | antitumor activity [1] | solubility (Solubility of the salt) |
| --- | --- | --- |
| CNCCCOc1cc(F)c(-c2c(Cl)nc3ncnn3c2N[C@@H](C)C(F)(F)F)c(F)c1 [Compound Ia, 5-chloro-6-{2,6-difluoro-4-[3-(methylamino)propoxy]phenyl}-N-[(1S)-2,2,2-trifluoro-1-methylethyl][1,2,4]triazolo[1,5-a]pyrimidin-7-amine] | broad antitumor activity |  |
| CNCCCOc1cc(F)c(-c2c(Cl)nc3ncnn3c2N[C@@H](C)C(F)(F)F)c(F)c1.O=C(O)CCC(=O)O [succinate dihydrate salt of Compound Ia] |  | reasonable solubility |
